We go through 64 molecules from PubChem BioAssay AID977605 (Broad Institute, 2014).

Structures are written as SMILES. Active and inactive are the calls of the source.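 Rule for the calls: active = fitted curve reaches 40% activation below the top valid tested dose, in every test run; inconclusive = test runs disagree on the call; inactive = the rest, including effects opposite to the expected direction.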

One experiment is described as follows: E-selectin inducers in HUVECs, dose response, imaging, HUVEC, cherry-picked samples (AID 977605).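 Note: signal is the share of imaged cells scored positive for E-selectin.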 Particulars: HUVEC E-selectin immunostaining, at 19.5 µM (top of the series).
On to `Cc1cccc(CN2CCCC(C(=O)c3ccc4c(c3)OCO4)C2)n1` (centres undefined), for which the activation was 4.78% (inactive).

Still in this experiment, the particulars now being: HUVEC E-selectin immunostaining, at 19.5 µM (top of the series), percent of TNF-alpha response over vehicle.
As to `C[C@@H]1CN([C@H](C)CO)C(=O)c2cccc(NS(C)(=O)=O)c2O[C@@H]1CN(C)Cc1ccncc1`, the activation was -0.083% (inactive).

Consider `CC(C)(C)c1ccc(NC(=O)N2CCCN(c3ccc([N+](=O)[O-])cn3)CC2)cc1`, for which the activation was 0.154% (inactive). For `Nc1nnc(SCc2nnc(-c3ccccc3)o2)s1`, the activation is 0.69% (inactive). Regarding `C[C@@H]1CN([C@H](C)CO)C(=O)c2cc(N(C)C)ccc2O[C@@H]1CN(C)C(=O)Nc1ccc2c(c1)OCO2`, the activation was 0.018% (inactive). The same measure, in the same setting: as for `C[C@H](CO)N1C[C@H](C)[C@H](CN(C)Cc2ccc(Cl)c(Cl)c2)Oc2ccc(NS(=O)(=O)c3cccs3)cc2C1=O`, the figure is 0.328% (inactive); as for `CCOc1ccc(NC(=O)CNC(=O)c2ccc(OC)cc2)cc1`, 0.033% (inactive); as for `C[C@H](CO)N1C[C@H](C)[C@H](CN(C)Cc2ccc(Oc3ccccc3)cc2)Oc2ccc(NC(=O)CCCCCC(=O)Nc3ccccc3N)cc2CC1=O`, 0.312% (inactive). On the same count and under the same terms, as for `Cc1ccc(S(=O)(=O)N2CCOCC2)cc1C(=O)NC1CCCC1`, the figure is -0.154% (inactive). The same measure, in the same setting: as for `C[C@@H]1CN([C@@H](C)CO)C(=O)c2cc(NC(=O)Nc3ccc(F)cc3)ccc2O[C@@H]1CN(C)S(=O)(=O)c1cccs1`, the figure is -0.142% (inactive); as for `CC(=O)Nc1ccc(CNc2nc(NC(C)C)nc3cc(-c4ccccc4)sc23)cc1`, 1.22% (inactive). In the case of `CC(C)(C)CC(=O)Nc1ccc(-c2cn3cccnc3n2)cc1`, the activation was 0.057% (inactive).

On to `NS(=O)(=O)c1ccc(NC(=O)CCC(=O)N2CCOCC2)cc1`, for which the activation is 0.021% (inactive). On the same count and under the same terms, the same measure for `O=C(Nc1cc(C(F)(F)F)cc(C(F)(F)F)c1)Nc1cnn(-c2ccc([N+](=O)[O-])cc2)c1C(F)(F)F`: 0.091% (inactive). As to `Cc1cc2cc(CNC(=O)c3ccc(S(=O)(=O)N4CCCCC4)cc3)ccc2n1C`, the activation is 0.135% (inactive). On to `Cc1ccccc1CCN1CCCC(CN(C)C(=O)c2ccc3ncccc3c2)C1` (centres undefined), for which the activation was 36.6% (inactive).

For `COc1cccc(CNC(=O)c2cc3c(cc2Cl)N2CCCCCC2=NS3(=O)=O)c1`, the activation was -0.058% (inactive). On the same count and under the same terms, as for `Cc1ccc(CSc2nc3[nH]ncc3c(=O)[nH]2)cc1`, the figure is 24.6% (inactive); as for `Cc1noc(C)c1NC(=O)N(C)C[C@H]1Oc2ccc(NS(=O)(=O)c3cccs3)cc2C(=O)N([C@H](C)CO)C[C@@H]1C`, 3.28% (inactive). Still for that read-out and setting: as for `Cc1ccc(C(=O)NNC(=O)CSc2nnc(CNc3ccc(F)cc3)n2C)cc1`, the figure is -0.046% (inactive); as for `C[C@@H]1CN([C@H](C)CO)C(=O)c2cccc(NC(=O)Nc3ccc(F)cc3)c2O[C@@H]1CN(C)S(=O)(=O)c1cn(C)cn1`, -0.066% (inactive); as for `COc1ccc(S(=O)(=O)N(C)C[C@H]2Oc3ccc(NS(=O)(=O)c4c(C)noc4C)cc3C(=O)N([C@@H](C)CO)C[C@H]2C)cc1`, 0.307% (inactive). Still for that read-out and setting: the same measure for `C[C@H]1CN([C@@H](C)CO)C(=O)Cc2cc(NC(=O)Nc3ccc(F)cc3)ccc2O[C@H]1CN(C)C(=O)Nc1ccc(C(F)(F)F)cc1`: 0.219% (inactive); for `C[C@H](CO)N1C[C@H](C)[C@H](CN(C)Cc2ccc(C(F)(F)F)cc2)Oc2ccc(NS(=O)(=O)c3cn(C)cn3)cc2CC1=O`: -0.066% (inactive); for `Cc1ccc(S(=O)(=O)N(C)C[C@H]2Oc3ccc(N(C)C)cc3C(=O)N([C@@H](C)CO)C[C@@H]2C)cc1`: 9.64% (inactive). As for `C[C@H](CO)N1C[C@H](C)[C@H](CN(C)Cc2ccc(C(F)(F)F)cc2)Oc2ccc(N(C)C)cc2CC1=O`, the activation is 0.692% (inactive).

Consider `C[C@@H]1CN([C@H](C)CO)C(=O)c2cccc(NS(C)(=O)=O)c2O[C@H]1CN(C)Cc1ccncc1`, for which the activation was 1.77% (inactive).

On to `C[C@H](CO)N1C[C@H](C)[C@@H](CN(C)S(C)(=O)=O)Oc2ccc(NS(=O)(=O)c3cccs3)cc2C1=O`, for which the activation was -0.072% (inactive). Same read-out and setting: as for `C[C@H]1CN([C@@H](C)CO)C(=O)c2cccc(NS(C)(=O)=O)c2O[C@@H]1CN(C)Cc1ccncc1`, the figure is -0.178% (inactive); as for `COc1ccc(S(=O)(=O)Nc2ccc3c(c2)C(=O)N([C@H](C)CO)C[C@H](C)[C@@H](CN(C)C(=O)Nc2cccc4ccccc24)O3)cc1`, 0.023% (inactive); as for `C[C@H]1CN([C@@H](C)CO)C(=O)c2cc(NC(=O)C3CCCCC3)ccc2O[C@H]1CN(C)Cc1ccc(C(=O)Nc2ccccc2N)cc1`, 4.92% (inactive).

`COc1ccc(CN(C)C[C@H]2Oc3ccc(N(C)C)cc3CC(=O)N([C@H](C)CO)C[C@H]2C)cc1`: the activation was 0.315% (inactive). On the same count and under the same terms, the same measure for `Cc1ccc(C(=O)Nc2cc(C)nn2CCC#N)cc1`: 0.178% (inactive). Same read-out and setting: the same measure for `COc1cccc(C(=O)Nc2cc(C)c3c(=O)oc4ccccc4c3n2)c1`: 2.1% (inactive); for `C[C@H]1CN([C@@H](C)CO)C(=O)c2cccc(NC(=O)c3ccncc3)c2O[C@@H]1CN(C)Cc1ccc(C(=O)Nc2ccccc2N)cc1`: 0.014% (inactive); for `O=C(NCc1ccccc1)C(c1ccc(C(F)(F)F)cc1)N1CCN(CCN2CCOCC2)CC1` (centres undefined): 6.03% (inactive).

Consider `CC(C)OC(=O)c1cccnc1N1CCN(c2cccc(Cl)c2)CC1`, for which the activation is 0.039% (inactive). Turning to `CC(=O)N(C)C[C@@H]1Oc2cc(C#Cc3ccccn3)ccc2S(=O)(=O)N([C@H](C)CO)C[C@@H]1C`, the activation is -0.123% (inactive). The same measure, in the same setting: the same measure for `O=S1(=O)CC(N2CCN(Cc3ccccc3F)CC2)CN1Cc1cn(Cc2ccccc2)nn1` (centres undefined): 0.129% (inactive); for `COc1ccc(NC(=O)N(C)C[C@@H]2Oc3ccc(NC(=O)Cc4ccccc4)cc3CC(=O)N([C@H](C)CO)C[C@H]2C)cc1`: -0.201% (inactive); for `C[C@@H]1CN([C@@H](C)CO)C(=O)c2cccc(NC(=O)Nc3ccc(F)cc3)c2O[C@@H]1CN(C)Cc1ccncc1`: -0.005% (inactive). With `CCOc1ccccc1NC(=O)N1CCC(NC(=O)C2CCCCC2)CC1`, the activation was -0.152% (inactive). For `C[C@@H]1CN([C@@H](C)CO)C(=O)c2cc(NC(=O)Cc3ccccc3)ccc2O[C@@H]1CN(C)Cc1ccc(Cl)c(Cl)c1`, the activation is 0.002% (inactive). On the same count and under the same terms, as for `O=C(c1cc(COc2ccc(F)cc2Cl)on1)N(Cc1ccncc1)CC1CCCO1` (centres undefined), the figure is -0.279% (inactive); as for `Cc1c(C(=O)NCc2ccco2)oc2ccccc12`, -0.246% (inactive). Same read-out and setting: the same measure for `O=C(NC1CCCC1)C(c1ccc(F)cc1)N(C(=O)c1csnn1)c1ccccc1` (centres undefined): 0.654% (inactive); for `Cc1noc(C)c1NC(=O)Nc1ccc2c(c1)CC(=O)N([C@@H](C)CO)C[C@H](C)[C@@H](CN(C)S(=O)(=O)c1ccccc1)O2`: -0.1% (inactive); for `C[C@@H]1CN([C@H](C)CO)C(=O)Cc2cc(NC(=O)CCN3CCOCC3)ccc2O[C@H]1CN(C)S(C)(=O)=O`: 0.606% (inactive).

For the molecule `C[C@H]1CN([C@@H](C)CO)C(=O)c2cc(NC(=O)CCN3CCOCC3)ccc2O[C@H]1CN(C)S(C)(=O)=O`, the activation was -0.165% (inactive). As for `C[C@@H]1CN([C@H](C)CO)C(=O)c2cc(NC(=O)CCN3CCOCC3)ccc2O[C@@H]1CN(C)Cc1ccncc1`, the activation was -0.14% (inactive). `C[C@@H]1CN([C@@H](C)CO)C(=O)Cc2cc(NC(=O)CCCCCC(=O)Nc3ccccc3N)ccc2O[C@@H]1CN(C)C(=O)Nc1ccc2c(c1)OCO2`: the activation is 0.042% (inactive). Same read-out and setting: the same measure for `COc1ccc(S(=O)(=O)N(C)C[C@H]2Oc3ccc(NC(=O)c4ccncc4)cc3C(=O)N([C@H](C)CO)C[C@@H]2C)cc1`: -0.104% (inactive).

For `CC(C)NC(=O)N(C)C[C@@H]1Oc2ccc(NC(=O)Cn3cnnn3)cc2CC(=O)N([C@@H](C)CO)C[C@H]1C`, the activation was 0.965% (inactive).

As for `C[C@@H]1CN([C@H](C)CO)C(=O)Cc2cc(NC(=O)Cn3cnnn3)ccc2O[C@H]1CN(C)C(=O)Nc1ccc(C(F)(F)F)cc1`, the activation is 0.232% (inactive). Take `C[C@H](CO)N1C[C@H](C)[C@@H](CN(C)S(=O)(=O)c2cn(C)cn2)Oc2ccc(NS(=O)(=O)c3ccc(Cl)cc3)cc2C1=O`: the activation was -0.286% (inactive).

Staying with this experiment, now noted: HUVEC E-selectin immunostaining, at 21 µM (top of the series), percent of TNF-alpha response over vehicle.
As for `C[C@@H]1CN([C@H](C)CO)C(=O)c2cccc(NC(=O)Nc3ccc4c(c3)OCO4)c2O[C@H]1CN(C)C(=O)Nc1ccc(C(F)(F)F)cc1`, the activation is 0.262% (inactive).

In the case of `CC(C)NC(=O)N(C)C[C@@H]1Oc2ccc(NC(=O)Cn3cnnn3)cc2C(=O)N([C@H](C)CO)C[C@H]1C`, the activation is -0.15% (inactive).

As to `COc1ccc(S(=O)(=O)N(C)C[C@H]2Oc3ccc(NC(=O)Nc4c(C)noc4C)cc3C(=O)N([C@@H](C)CO)C[C@@H]2C)cc1`, the activation is 2.96% (inactive).

For `CNC[C@@H]1Oc2c(NC(=O)Nc3ccc(F)cc3)cccc2C(=O)N([C@H](C)CO)C[C@H]1C`, the activation is -0.191% (inactive).

For `C[C@H]1CN([C@@H](C)CO)C(=O)Cc2cc(NC(=O)Nc3ccc4c(c3)OCO4)ccc2O[C@@H]1CN(C)C`, the activation was -0.039% (inactive). Regarding `CC(C)NC(=O)Nc1ccc2c(c1)C(=O)N([C@@H](C)CO)C[C@@H](C)[C@H](CN(C)Cc1ccc(C(F)(F)F)cc1)O2`, the activation is 0.029% (inactive). Same read-out and setting: the same measure for `Cc1noc(C)c1NC(=O)N(C)C[C@@H]1Oc2ccc(NC(=O)c3ccncc3)cc2C(=O)N([C@H](C)CO)C[C@@H]1C`: 0.043% (inactive); for `C[C@@H]1CN([C@@H](C)CO)C(=O)Cc2cc(NS(=O)(=O)c3ccc(F)cc3)ccc2O[C@@H]1CN(C)S(=O)(=O)c1ccc(Cl)cc1`: -0.065% (inactive); for `CC(C)NC(=O)Nc1cccc2c1O[C@@H](CN(C)Cc1ccc(Cl)c(Cl)c1)[C@@H](C)CN([C@H](C)CO)C2=O`: 7.29% (inactive).
